Assay results taken from PMC3913620, “Preclinical Evaluation of the Novel, Orally Bioavailable Selective Inhibitor of Nuclear Export (SINE) KPT-335 in Spontaneous Canine Cancer: Results of a Phase I Study” (PLoS ONE, 2014).

Experiments:
[1] = system: canine melanoma cell lines; experiment: Proliferation and viability of canine melanoma cell lines (data not shown); format: cell-based; details: Canis lupus familiaris, read-out: IC50 concentrations, canine melanoma cell lines
[2] = system: primary canine DLBCL cells; experiment: Annexin V apoptosis assay (flow cytometry), primary canine DLBCL; format: cell-based; details: primary canine DLBCL (sample #1), 100 nM, 24 hours
Protocol: Jurkat cells and primary canine DLBCL cells were cultured for 24 hours in the presence of 100 nM KPT-335 or dimethyl sulfoxide (DMSO). Cells were stained with Annexin V (eBiosciences, San Diego, CA) according to the manufacturer’s instruction. Flow cytometry was performed using a BD LSRII flow cytometer (BD Immunocytometry Systems, San Jose, CA) and results were analyzed using FlowJo software (Tree Star, Ashland, OR).

Jurkat cells = experiment: MTS cell viability assay, Jurkat; format: cell-based, human; details: Homo sapiens, Jurkat, 72 hours, read-out: IC50 (± S.D.), Jurkat
Protocol: Cryopreserved tumor cells obtained from sterile lymph node biopsy samples from dogs with diffuse large B cell lymphoma (DLBCL) were cultured with 100 ng/mL of megaCD40L (Enzo Life Science, Plymouth Meeting, PA) as previously described, [27]. The human T-cell leukemia cell line, Jurkat, was from the American Type Culture Collection (ATCC, Manassas, VA) and cultured in RPMI1640 medium (Gibco/BRL, Grand Island, NY) containing 10% fetal bovine serum (FBS; Atlas Biologicals, Fort Collins, CO), 2-mercaptoethanol (Gibco/BRL), HEPES, L-glutamine, sodium pyruvate (Mediatech Inc., Manassas, VA), non-essential amino acids (Sigma Aldrich, St. Louis, MO), and Primocin (Invivogen, San Diego, CA). The canine DLBCL cell line CLBL1 obtained from Dr. Barbara Rütgen (University of Vienna, Austria), [29] and human DLBCL cell lines OCI-Ly3 [30], [31] and OCI-Ly10 [32] obtained from Dr. Anne Novak (Mayo Clinic Cancer Center, Rochester, MN) were cultured in complete Iscove’s Modified Dulbecco’s medium (IMDM) containing 20% FBS, L-glutamine, and Primocin. All cells were maintained at 37°C in a humidified 5% CO2 atmosphere. The following additional canine tumor cell lines were used to evaluate response to SINE compounds: C2, mast cell tumor line provided by Dr. George Caughey, UCSF, San Francisco, CA [33]; OSA16, osteosarcoma cell line, provided by Dr. Jaime Modiano, UM, Minneapolis, MN [34]; and 323610-3, malignant melanoma cell line, provided by Dr. Michael Kent, UCD, Davis, CA [35]. […]
Cell viability for lymphoid lines was determined by the MTS (3-(4, 5-dimethylthiazol-2-yl)-5-(3-carboxymethoxyphenyl)-2-(4-sulfophenyl)-2H-tetrazolium) assay using CellTiter 96® AQueous One Solution Cell Proliferation Assay Kit (Promega, Madison, WI). […] After 72 hours, 20 µL of MTS solution was added to each well and cells were incubated for another 4 hours before measuring absorbance at 490 nm using a Wallac Victor 1420 Multilabel Counter (Perkin Elmer, Waltham, MA). The IC50 of SINE was calculated using Prism 6 software (GraphPad Software, Inc., La Jolla, CA).

[3] = Owner-assessed quality of life questionnaire; format: in vivo, dogs
Source text: A tool to assess quality of life in dogs with cancer during treatment has been previously published. This was used to assess owner perceived changes in dogs undergoing KPT-335 treatment during both the dose escalation and dose expansion studies. An overall quality of life (QOL) score was created based on answers to the questions on the quality of life questionnaire. The scores from each question were summed resulting in an overall quality of life score which could range from 23 to 115. Trends in Quality of Life (QOL) during the study were examined using linear mixed models containing fixed effects of time and an autoregressive correlation structure for the random errors. Wald tests were used to test for a significant change in QOL with degrees of freedom calculated using the Kenward-Roger method. Measurements obtained after 90 days were not included in the analysis for the dose escalation study and measurements after 70 days were not included in the analysis of the dose expansion data due to few data points after those time points.

CLBL1 cells = experiment: Annexin V apoptosis assay (flow cytometry), CLBL1; format: cell-based, canine; details: CLBL1, 100 nM, 24 hours
[4] = dog, in vivo
[5] = Phase I dose escalation study, toxicity assessment; details: dog, in vivo, po; orally twice/week (Monday/Thursday), dogs with spontaneous cancer; read-out: maximum tolerated dose (MTD)
Protocol: This study was a Phase I dose escalating, open label assessment of the safety and biologic activity of KPT-335 in client owned dogs with spontaneous malignancies. Assessment of clinical toxicities and tumor response was performed at each visit. Dogs were evaluated for hematologic and biochemical toxicities every 7 days with routine bloodwork. The initial dose of 1 mg/kg orally twice per week (Monday/Thursday or Tuesday/Friday) was based on previous data from normal laboratory dogs (data not shown) and dose escalation was set at 0.25 mg/kg increments in cohorts of 3 until dose limiting toxicity (DLT) was identified. The DLT was considered to be any grade 3 or 4 hematologic or non-hematologic toxicity based on the established VCOG-CTCAE criteria. […] Disease progression or signs and symptoms definitely related to disease were not considered adverse events (AEs). The maximum tolerated dose (MTD) was considered to be one dose below that at which DLT occurred.
Each patient underwent a baseline complete history, physical examination, and pre-dose laboratory assessment that included a complete blood count (CBC), serum biochemistry profile, coagulation parameters (PT/PTT) and urinalysis. Patients were assessed for adverse events on days 7, 14, 21, and 28, and every 2 weeks thereafter at which time all laboratory assessments were repeated. […]

[6] = Tolerability in normal laboratory dogs (data not shown); details: dog, in vivo

For O=C(/C=C\n1cnc(-c2cc(C(F)(F)F)cc(C(F)(F)F)c2)n1)NNc1ccccn1 [KPT-335], the IC50 [1] was 0.095 to 0.29 µM, the “apoptotic cells (Annexin V+ cells) compared to mock treated cells” value [2] was “increased apoptotic cells” and the IC50 (Jurkat cells) was 0.0003 µM. The “overall quality of life” value ([3]; dose escalation study, p = 0.64) was “did not change significantly”, the “overall quality of life” value ([3]; dose expansion study, p = 0.47) was “did not change significantly” and the “apoptotic cells (Annexin V+ cells) compared to mock treated cells” value (CLBL1 cells) was “increased apoptotic cells”. For the same compound, the tolerable doses [4] was “below 3 mg/kg”, the MTD [5] was 1.75 mg/kg and the MTD [6] was 2 mg/kg.
